In PMC11722313 (bioRxiv, 2025):

Columns and labels:
IDE [1] = experiment: Cryo-EM of IDE in the presence of sub-saturating insulin; parameters: species or system human
IDE [2] = conditions: time-resolved SAXS; ref Zhang et al., 2018; cited from earlier work
IDE [3] = conditions: HDX-MS; ref Zhang et al, 2018; cited from earlier work
[4] = Size-exclusion chromatography elution of IDE constructs; format: physicochemical, human; conditions: S200 SEC column
[5] = SEC-SAXS of IDE constructs; format: physicochemical, human; conditions: Guinier method
[6] = target: IDE R668A (human insulin degrading enzyme, cysteine-free) (Homo sapiens, UniProt P14735, C110L/C171S/C178A/C257V/C414L/C573N/C590S/C789S/C812A/C819A/C904S/C966N/C974A/R668A); experiment: Competition assay: inhibition of MCA-[…]; format: biochemical; conditions: 5 nM IDE R668A, 5 μM MCA-RPPGFSAFK(Dnp), pH 7.5, 37° C; average of three technical replicates
[7] = IDE:insulin 2:1, compared with previously reported O and pO states

Chain of IDE R668A (human insulin degrading enzyme, cysteine-free) (P14735 42-1019 C110L/C171S/C178A/C257V/C414L/C573N/C590S/R668A/C789S/C812A/C819A/C904S/C966N/C974A limits assumed): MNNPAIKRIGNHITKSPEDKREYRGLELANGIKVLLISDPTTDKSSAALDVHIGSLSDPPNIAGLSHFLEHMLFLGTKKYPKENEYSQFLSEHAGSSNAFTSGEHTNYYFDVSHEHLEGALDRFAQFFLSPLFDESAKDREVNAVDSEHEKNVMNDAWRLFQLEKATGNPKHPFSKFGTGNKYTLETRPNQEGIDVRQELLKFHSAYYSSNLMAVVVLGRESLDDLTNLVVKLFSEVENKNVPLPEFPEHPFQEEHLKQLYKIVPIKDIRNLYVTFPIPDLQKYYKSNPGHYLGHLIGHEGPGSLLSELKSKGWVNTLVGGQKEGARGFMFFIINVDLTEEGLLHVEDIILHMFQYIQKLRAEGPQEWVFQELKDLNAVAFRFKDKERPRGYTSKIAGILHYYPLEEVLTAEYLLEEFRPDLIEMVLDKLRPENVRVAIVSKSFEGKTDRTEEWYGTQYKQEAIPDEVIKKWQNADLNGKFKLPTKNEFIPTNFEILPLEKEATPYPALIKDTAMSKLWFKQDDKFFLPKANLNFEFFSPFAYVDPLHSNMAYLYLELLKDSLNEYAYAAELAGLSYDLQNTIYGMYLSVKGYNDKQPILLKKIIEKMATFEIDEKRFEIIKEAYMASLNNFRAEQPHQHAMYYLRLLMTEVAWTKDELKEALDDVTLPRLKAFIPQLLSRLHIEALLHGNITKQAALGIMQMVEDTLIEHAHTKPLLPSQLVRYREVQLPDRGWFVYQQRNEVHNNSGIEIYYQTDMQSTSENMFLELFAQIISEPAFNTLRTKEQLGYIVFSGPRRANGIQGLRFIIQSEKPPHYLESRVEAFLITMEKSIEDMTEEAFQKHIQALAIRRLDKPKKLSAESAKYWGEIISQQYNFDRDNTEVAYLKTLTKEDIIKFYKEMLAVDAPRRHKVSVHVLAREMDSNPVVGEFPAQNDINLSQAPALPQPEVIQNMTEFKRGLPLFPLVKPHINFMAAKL

**Q.** For “insulin: IDE substrate; purchased from MP Biomedicals (#0219390010) for enzymatic assays, SIGMA (91077C) for cryo-EM”, which “closing of pO and O subunits in presence of insulin (D1-D4 COM distance)” value (IDE [1]; [7]) is on record?
**A.** The value was 3–5 Å.

**Q.** What about the “reduction of D1-D2-D3-D4 COM dihedral in presence of insulin” value (IDE [1]; [7]) of the same molecule?
**A.** Its value is 5–10 °.

**Q.** What about the “dominant IDE state with sub-saturating insulin” value (IDE [1]; IDE:insulin molar ratio 2:1, cryo-EM) of the same molecule?
**A.** Its value is “the pC/pC was still found to be dominant”.

**Q.** And the “time constant tau for the insulin induced open to closed transition” value (IDE [2])?
**A.** Its value is ~ 100 milliseconds.

**Q.** Which “deuterium exchange of the R668-containing peptide vs apo-IDE” value (IDE [3]) does the source give for `O=C(C[C@@H](Cc1ccc2ccccc2c1)n1cc(CNC(=O)c2ccc(F)cc2)nn1)NO` [BDM-44768] here?
**A.** The value was “the peptide containing R668 shows reduced deuterium exchange relative to apo-IDE”.

**Q.** What does the source list for “R668A: IDE carrying a R668 to alanine (R668A) point mutation”?
**A.** SEC elution relative to WT IDE [4]: eluted slightly earlier than WT IDE; Rg (Guinier) [5]: 54.7 +/− 0.4 Å

**Q.** For “Aβ(1–40): amyloid-β 1–40, an unstructured substrate of IDE”, which “competition of MCA-RPPGFSAFK(Dnp) degradation, IDE R668A (in words)” value [6] is on record?
**A.** The value was “did not exhibit a dose-dependent response to the presence of Aβ and the data could not be fit to any kinetic equation”.
